The results in this text go back to patent publication US5607926A, “Cephalosporin antibiotics” (Microcide Pharmaceuticals, Inc., priority 1995, dated 1997).

In brackets after ≈: the same amount, converted by molar mass. Where a name gives a salt, the structure may show the parent alone. Read-outs that look alike come from different tables or passages of the source. Where only a bound is given, the exact number is not on record here.

What all share (format): cell-based
For assay [1], the system named is S. aureus ATCC 25923. Nature of the assay: In vitro antibacterial evaluation, MIC by agar dilution, S. aureus ATCC 25923. The settings on record: Staphylococcus aureus, ATCC25923. On the procedure:
The compounds of the invention were evaluated against several β-lactamresistant bacteria strains by determining the minimum inhibitory concentration (MIC, μg/ml) of each compound with respect to each strain. The MIC, the lowest concentration of antibiotic which inhibits growth of the test organism, was determined by the agar dilution method.
To determine the MIC for bacterial isolates, the test compound was incorporated in a series of two-fold dilutions into liquified Mueller-Hinton agar. Upon solidification, a number of different bacterial strains were spot inoculated with a replicating device onto the agar surface. […] The procedures used in these studies have been standardized by the National Committee for Clinical Laboratory Standards (NCCLS), as per the NCCLS publication entitled METHODS FOR DILUTION ANTIMICROBIAL SUSCEPTIBILITY TESTS (1991), which is incorporated herein by reference.
Aliquots of antimicrobial agents were prepared in phosphate buffered saline (PBS) at pH 7.2. Tween 20 or DMSO was used as a solubilizing vehicle as needed. Standard methods of vortexing, sonicating and gentle heat were used to facilitate solubilizing the test agent. Typically, the concentration of the stock solution was 10× that of the highest drug concentration tested. A 1.28 mg/mL stock solution was used with a subsequent highest working concentration of 128 μg/mL. Serial two-fold dilutions were done through ≤0.25 μg/mL. Each drug level was tested in duplicate. Two-fold drug dilutions were done in sterile 50 mL tubes with a final drug volume of 5 mL. Upon the addition of 45 mL of molten agar, a 10-fold dilution resulted. Two, 25 mL. plates were then poured into 15×150 mm square Petri plates with grids and allowed to harden.
A control plate with a reference drug, either cefotaxime, vancomycin or imipenem, was used as the positive growth control. Stock concentrations of reference antibiotics were prepared and frozen at -80° C. Upon preparation, the control plates were sealed and stored in the refrigerator for up to 1 week prior to use; however, imipenem control plates had to be prepared just prior to use. All test plates were used within 24 hours of preparation.
Satisfactory results were obtained where the inoculum contained about 10^4 colony forming units (cfu) ±0.5 logs. Starting with pure cultures of the test isolates on agar plates, a few isolated colonies were transferred to a tube of nutrient broth and allowed to grow 4-6 hours at 35°-36° C. to reach log-phase growth. Dropwise addition of the broth culture to PBS was done to match a 0.5 McFarland turbidity standard equal to 10^8 cfu/mL. This was further diluted ten-fold in PBS to reach a working inoculum concentration of 10^7 cfu/mL. When 1 μL of the working inoculum was applied to the agar surface a concentration of about 10^4 cfu per spot was obtained.
Disposable sterile 1 μL loops were used to inoculate test plates, with each isolate in a designated grid on the agar plate. An alternate method of inoculation involved the use of a replica plater, a device with 48 steel pins allowing the simultaneous inoculation of multiple isolates. After the spots had dried, the plates were incubated at 35°-36° C. for 16-20 hours. Endpoints were assessed as the minimum inhibitory concentration (MIC) of antimicrobial agent.

Assay [2] relates to S. epidermidis ATCC 31432. Kind of assay: In vitro antibacterial evaluation, MIC by agar dilution, S. epidermidis ATCC 31432. The settings on record: Staphylococcus epidermidis, ATCC31432. The gist of the method: (§1)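 Minimum inhibitory concentrations came from the NCCLS agar dilution method in Mueller-Hinton agar. Each isolate received about 10^4 cfu per spot, and plates were read after 16-20 hours at 35°-36° C.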

The test system of assay [3] is S. aureus 76 (Meth^R)(lac^+). Kind of assay: In vitro antibacterial evaluation, MIC by agar dilution, S. aureus 76. Particulars: Staphylococcus aureus, read-out: MIC. In a few lines: as §1
In assay [4] the test system is S. aureus Col8A (Meth^S)(lac^-). Nature of the assay: In vitro antibacterial evaluation, MIC by agar dilution, S. aureus Col8A. The settings on record: Staphylococcus aureus. The gist of the method:
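Agar dilution per NCCLS (1991): two-fold dilutions from 128 μg/mL down to ≤0.25 μg/mL in Mueller-Hinton agar, each level in duplicate. Spots of about 10^4 cfu of log-phase culture; 16-20 h at 35°-36° C. MIC in μg/ml is the lowest concentration inhibiting growth.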

In assay [5] the test system is S. haemolyticus (Meth^R). Nature of the assay: In vitro antibacterial evaluation, MIC by agar dilution, S. haemolyticus. The settings on record: Staphylococcus haemolyticus, read-out: MIC. The gist of the method:
as §1

The subject of assay [6] is E. faecium ATCC 35667. Kind of assay: In vitro antibacterial evaluation, MIC by agar dilution, E. faecium ATCC 35667. Particulars: Enterococcus faecium, ATCC35667, read-out: MIC. The gist of the method:
as §1

The test system of assay [7] is E. faecalis ATCC 29212. Kind of assay: In vitro antibacterial evaluation, MIC by agar dilution, E. faecalis ATCC 29212. The settings on record: Enterococcus faecalis, ATCC29212; E. faecalis ATCC 29212; read-out: MIC. In a few lines: as §1
Assay [8] concerns E. coli ATCC 25922. Kind of assay: In vitro antibacterial evaluation, MIC by agar dilution, E. coli ATCC 25922. The settings on record: Escherichia coli, ATCC25922, read-out: MIC. The gist of the method: as §1
The subject of assay [9] is P. aeruginosa ATCC 27853. Kind of assay: In vitro antibacterial evaluation, MIC by agar dilution, P. aeruginosa ATCC 27853. Particulars: Pseudomonas aeruginosa, ATCC27853, read-out: MIC. The gist of the method:
as §1

Setting [10] is: S. aureus ATCC 25923, read-out: MIC.
Where [11] appears, read: S. epidermidis ATCC 31432, read-out: MIC.

Regarding `N#CCC(=O)N[C@@H]1C(=O)N2C(C(=O)O)=C(Sc3ccccc3-c3ccccc3)CS[C@H]12` [Cmpd 34, (7R)-7-[(Cyanoacetyl)amino]-3-(2-biphenylthio)-3-cephem-4-carboxylic acid], the MIC in assay [1] was less than 0.25 µg/mL; in assay [2] it was less than 0.25 µg/mL; in assay [3], 8 µg/mL (≈ 17.7 µM); in assay [4], less than 0.25 µg/mL; in [5], 8 µg/mL (≈ 17.7 µM); in assay [6] it was 2 µg/mL (≈ 4.43 µM). In addition, the MIC in assay [7] was 2 µg/mL (≈ 4.43 µM); in assay [8], greater than 32 µg/mL; in assay [9], greater than 32 µg/mL.

As to `N#CCC(=O)N[C@@H]1C(=O)N2C(C(=O)O)=C(Sc3ccc(CSC(=N)N)cc3I)CS[C@H]12` [Cmpd 66, (7R)-7-[(Cyanoacetyl)amino]-3-(4-isothiouroniummethyl-2-iodophenylthio)-3-cephem-4-carboxylate, inner salt], the MIC in [1] was less than 0.25 µg/mL; in assay [2], less than 0.25 µg/mL; in assay [3], 8 µg/mL; in assay [4], less than 0.25 µg/mL; in [5], 8 µg/mL; in assay [6], 1 µg/mL. In addition, the MIC in assay [7] is 4 µg/mL; in assay [8], greater than 32 µg/mL; in assay [9] it was greater than 32 µg/mL.

`O=C(Cc1ccccc1)N[C@@H]1C(=O)N2C(C(=O)O)=C(Sc3ccc(CSC4=NCCN4)cc3I)CS[C@H]12` [Cmpd 59, (7R)-7-[(Phenylacetyl)amino]-3-(4-(2-imidazolin-2-ylthiomethyl)-2-iodophenylthio)-3-cephem-4-carboxylic acid]: the MIC in assay [1] is less than 0.25 µg/mL; in assay [2], less than 0.25 µg/mL; in [3], 8 µg/mL (≈ 12 µM); in [4] it was less than 0.25 µg/mL; in assay [5] it was 16 µg/mL (≈ 24 µM); in assay [6], 4 µg/mL (≈ 6 µM). The MIC in assay [7] is 4 µg/mL (≈ 6 µM); in assay [8] it was greater than 32 µg/mL; in assay [9], greater than 32 µg/mL.

For `O=C(Cc1ccccc1)N[C@@H]1C(=O)N2C(C(=O)O)=C(Sc3ccc4ccccc4c3Br)CS[C@H]12` [Cmpd 57, (7R)-7-[(Phenylacetyl)amino]-3-(1-bromo-naphthalen-2-ylthio)-3-cephem-4-carboxylic acid], the MIC in [1] was less than 0.25 µg/mL; in assay [2], less than 0.25 µg/mL; in [3], 2 µg/mL (≈ 3.6 µM); in [4], less than 0.25 µg/mL; in [5] it was 4 µg/mL (≈ 7.2 µM); in assay [6] it was 1 µg/mL (≈ 1.8 µM). Besides, the minimum inhibitory concentration (MIC) worked out at 2 µg/mL (≈ 3.6 µM) in assay [7], 32 µg/mL (≈ 57.6 µM) in [8] and 32 µg/mL (≈ 57.6 µM) in assay [9].

On to `N=C(NCCN1CCOCC1)SCc1ccc(SC2=C(C(=O)O)N3C(=O)[C@@H](NC(=O)Cc4ccccc4)[C@H]3SC2)c(I)c1` [Cmpd 61, (7R)-7-[(Phenylacetyl)amino]-3-(4-(N-morpholinoethyl)isothiouroniummethyl-2-iodophenylthio)-3-cephem-4-carboxylate, inner salt], for which the minimum inhibitory concentration (MIC) in assay [1] (setting [10]) was less than 0.25 µg/mL; in assay [2] (setting [11]), less than 0.25 µg/mL; in [3] it was 16 µg/mL; in assay [4], 0.5 µg/mL; in assay [5], greater than 32 µg/mL; in assay [6], 4 µg/mL. Moreover, the MIC is 4 µg/mL in assay [7], greater than 32 µg/mL in [8] and greater than 32 µg/mL in assay [9].

Consider `O=C(Cc1ccccc1)N[C@@H]1C(=O)N2C(C(=O)O)=C(Sc3cccc4c3CCCC4)CS[C@H]12` [Cmpd 56, (7R)-7-[(Phenylacetyl)amino]-3-(5,6,7,8-tetrahydronaphthalen-1-ylthio)-3-cephem-4-carboxylic acid], for which the MIC in [1] is less than 0.25 µg/mL; in assay [2], less than 0.25 µg/mL; in [3], 4 µg/mL (≈ 8.32 µM); in assay [4] it was less than 0.25 µg/mL; in [5] it was 16 µg/mL (≈ 33.3 µM); in assay [6], 4 µg/mL (≈ 8.32 µM). The MIC in assay [7] is 2 µg/mL (≈ 4.16 µM); in [8], greater than 32 µg/mL; in assay [9], greater than 32 µg/mL.

`Cn1cc[n+](Cc2ccoc2-c2ccccc2SC2=C(C(=O)[O-])N3C(=O)[C@@H](NC(=O)Cc4ccccc4)[C@H]3SC2)c1` [Cmpd 48, (7R)-7-[(Phenylacetyl)amino]-3-(2-(3-(N-methylimidazoliummethyl)furan-2-yl)phenylthio)-3-cephem-4-carboxylic acid]: the MIC is less than 0.25 µg/mL in assay [1] (setting [10]); less than 0.25 µg/mL in assay [2] (setting [11]); 16 µg/mL (≈ 27.3 µM) in assay [3]; 0.5 µg/mL (≈ 0.852 µM) in assay [4]; 16 µg/mL (≈ 27.3 µM) in [5]; 4 µg/mL (≈ 6.82 µM) in [6]. Besides, the figures for the minimum inhibitory concentration (MIC) in [7], in [8] and in [9] were 4 µg/mL (≈ 6.82 µM), greater than 32 µg/mL and greater than 32 µg/mL, respectively.

As to `Cn1cc[n+](Cc2ccc(-c3ccccc3SC3=C(C(=O)[O-])N4C(=O)[C@@H](NC(=O)Cc5ccccc5)[C@H]4SC3)s2)c1` [Cmpd 45, (7R)-7-[(Phenylacetyl)amino]-3-(2-(2-(N-methylimidazoliummethyl)thien-5-yl)phenylthio)-3-cephem-4-carboxylic acid], the minimum inhibitory concentration (MIC) in assay [1] (setting [10]) is less than 0.25 µg/mL; in assay [2] (setting [11]), less than 0.25 µg/mL; in assay [3] it was 16 µg/mL (≈ 26.5 µM); in assay [4] it was 0.5 µg/mL (≈ 0.83 µM); in [5] it was 32 µg/mL (≈ 53.1 µM); in assay [6], 4 µg/mL (≈ 6.64 µM). The minimal inhibitory concentration (MIC) was 4 µg/mL (≈ 6.64 µM) in assay [7], greater than 32 µg/mL in assay [8] and greater than 32 µg/mL in assay [9].

For the molecule `C=Cc1ccccc1SC1=C(C(=O)O)N2C(=O)[C@@H](NC(=O)Cc3ccccc3)[C@H]2SC1` [Cmpd 36, (7R)-7-[(Phenylacetyl)amino]-3-(2-vinylphenylthio)-3-cephem-4-carboxylic acid], the MIC in [1] is less than 0.25 µg/mL; in assay [2] it was less than 0.25 µg/mL; in assay [3] it was 8 µg/mL (≈ 17.7 µM); in assay [4], less than 0.25 µg/mL; in assay [5], 16 µg/mL (≈ 35.4 µM); in [6], 4 µg/mL (≈ 8.84 µM). Besides, the MIC in assay [7] is 2 µg/mL (≈ 4.42 µM); in [8] it was greater than 32 µg/mL; in assay [9], greater than 32 µg/mL.

For `O=C(CSc1ccccc1)N[C@@H]1C(=O)N2C(C(=O)O)=C(Sc3cc(Cl)ccc3Cl)CS[C@H]12` [Cmpd 35, (7R)-7-[(Phenylthioacetyl)amino]-3-(2,5-dichlorophenylthio)-3-cephem-4-carboxylic acid], the MIC in assay [1] is less than 0.25 µg/mL; in assay [2], less than 0.25 µg/mL; in assay [3], 2 µg/mL (≈ 3.79 µM); in [4] it was less than 0.25 µg/mL; in [5], 8 µg/mL (≈ 15.2 µM); in [6], 1 µg/mL (≈ 1.9 µM). Besides, the MIC is 1 µg/mL (≈ 1.9 µM) in assay [7], greater than 32 µg/mL in assay [8] and greater than 32 µg/mL in [9].

As to `N=C(N)NC(=N)SCc1ccc(SC2=C(C(=O)O)N3C(=O)[C@@H](NC(=O)Cc4ccccc4)[C@H]3SC2)c(I)c1` [Cmpd 60, (7R)-7-[(Phenylacetyl)amino]-3-(4-(N-amidino)isothiouroniummethyl-2-iodophenylthio)-3-cephem-4-carboxylate, inner salt], the MIC in [1] was less than 0.25 µg/mL; in assay [2], less than 0.25 µg/mL; in assay [3] it was 4 µg/mL; in assay [4], less than 0.25 µg/mL; in assay [5], 4 to 8 µg/mL; in assay [6] it was 1 µg/mL. Also, the MIC in assay [7] is 1 µg/mL; in assay [8], greater than 32 µg/mL; in [9] it was greater than 32 µg/mL.
